Experimental findings from ChEMBL document CHEMBL1240418, “Carbonic anhydrase inhibitors. Regioselective synthesis of novel 1-substituted 1,4-dihydro-4-oxo-3-pyridinesulfonamides and their inhibition of the human cytosolic isozymes I and II and transmembrane cancer-associated isozymes IX and XII” (Eur J Med Chem, 2010) are described below.

The term pKi denotes the negative decadic logarithm of the Ki, by convention in mol/L. Read a low pKi as a large Ki.

SMILES strings stand for the structures. pKi: −log10 of the molar value.

This assay deals with Carbonic anhydrase 9 (Homo sapiens, UniProt Q16790).
Molecule `Cn1ccc(=O)c(S(N)(=O)=O)c1` gave a pKi of 8.15.
Take `NS(=O)(=O)c1cn(Cc2ccccc2)ccc1=O`: the pKi was 8.11.
For `NC(=O)Cn1ccc(=O)c(S(N)(=O)=O)c1` the value was 7.19; for `COC(=O)Nc1ccccc1C(=O)n1ccc(=O)c(S(N)(=O)=O)c1`, 7.02; for `NS(=O)(=O)c1cn(CC(=O)c2ccc(Cl)cc2)ccc1=O`, 7.93.
`NS(=O)(=O)c1cn(CC(=O)c2ccc(F)cc2)ccc1=O` gave a pKi of 8.01.
As for `NS(=O)(=O)c1cn(CC(=O)c2ccc(Cl)c(Cl)c2)ccc1=O`, the pKi was 8.07.
For `NS(=O)(=O)c1cn(CC(=O)c2cccc([N+](=O)[O-])c2)ccc1=O` the value was 7.92.
In turn, `NS(=O)(=O)c1cn(CC(=O)c2ccc3ccccc3c2)ccc1=O` showed a pKi of 6.93.
Then `NS(=O)(=O)c1cn(-c2ccc([N+](=O)[O-])cc2[N+](=O)[O-])ccc1=O`, with 8.24.
For `NS(=O)(=O)c1cn(-c2ccc([N+](=O)[O-])c3[n-][o+]nc23)ccc1=O` the value was 8.16.
